# Assay results published in article PMC5803267, “A small molecule inhibitor of Rheb selectively targets mTORC1 signaling” (Nature Communications, 2018).
# Columns and labels:
# [1] = test system: mTORC1 signaling in TRI102 cells; experiment: mTORC1 signaling Western blot in TRI102 cells; assay type: cell-based, human; conditions: replete and serum-starved conditions, 90 min, dose-dependent
# Experimental: MCF-7 cells were serum-starved for 16 h and treated with compound for 90 min before cell lysis and Western blot analysis. For insulin-stimulated cells, 100 nM insulin was added 30 min before cell lysis. For EGF-stimulated cells, 100 ng mL^−1 EGF was added 10 min before cell lysis. c Rap1 activity was detected in lysates loaded in vitro with either GDP or GTPγS and treated with NR1 at the indicated concentrations. This was followed by a subsequent pulldown of GST-RalGDS-RBD. Bound Rap1 was detected by Western blot. d Evaluation of NR1 in a LAM patient-derived cell line (TRI102) under replete and serum-starved conditions. For replete conditions, TRI102 cells were treated for 90 min with compound in DMEM + 10% FBS. For serum-starved conditions, TRI102 cells were serum-starved 16 h and then treated for 90 min with compound prior to cell lysis and Western blot analysis. e HEK293 cells co-transfected with the indicated mTOR constructs and HA-GST-S6K1 were starved of amino acids or treated with NR1. To assess mTORC1 activity, an HA IP was performed and Western blots probed for ^T389pS6K1. f Chronic treatment of PC3 cells with NR1 to evaluate the inhibition of mTORC1 (using ^T389pS6K1) versus mTORC2 (using ^S473pAKT). PC3 cells were treated with compound under replete conditions for 24 h prior to cell lysis and Western blot analysis. […]
# pS6K1 in MCF-7 cells = experiment: Insulin-stimulated mTORC1 signaling Western blot in MCF-7 cells; assay type: cell-based, human; conditions: MCF-7, 10 µM NR1
# Excerpt: (§1) We next evaluated the activity of NR1 in cell culture. Selective inhibition of mTORC1 in cells produces a specific signaling signature characterized by a reduction in phosphorylation of the mTORC1 substrates S6K1 and 4E-BP1 and increase in phosphorylation of AKT, catalyzed by mTORC2. This distinctive profile reflects the relief of a feedback loop where active S6K1 directly phosphorylates IRS1, resulting in the degradation of IRS1 and subsequent reduction of growth factor signaling from RTKs to downstream effectors such as AKT[1]. Conversely, reduction in ^T389pS6K1 is expected to lead to an increase in ^S473pAKT levels. We used AlphaLISA assays to detect ^T389pS6K1 and ^S473pAKT in MCF-7 cells. During the development of the assays, we noticed that ^T389pS6K1 was more responsive to our compound series than ^T37/46p4E-BP1, which may be due to differences in mTORC1 substrate classes in a cellular setting. […]
# MCF-7 cells were serum-starved for 16 h and treated with compound for 90 min before cell lysis and Western blot analysis. […] For EGF-stimulated cells, 100 ng mL^−1 EGF was added 10 min before cell lysis. c Rap1 activity was detected in lysates loaded in vitro with either GDP or GTPγS and treated with NR1 at the indicated concentrations. […] Bound Rap1 was detected by Western blot. d Evaluation of NR1 in a LAM patient-derived cell line (TRI102) under replete and serum-starved conditions. […]
# [2] = test system: T389pS6K1 (mTORC1 activity) in MCF-7 cells; experiment: T389pS6K1 AlphaLISA assay in MCF-7 cells; assay type: cell-based, human
# Excerpt: as §1, with “cells.” for “cells. During the development of the assays, we noticed that ^T389pS6K1 was more responsive to our compound series than ^T37/46p4E-BP1, which may be due to differences in mTORC1 substrate classes in a cellular setting.”
# (§2) Evaluation of NR1 in MCF-7 under replete conditions. […] The indicated phosphoproteins were detected using AlphaLISA assays for T389pS6K1 (reflecting mTORC1 activity) and S473pAKT (reflecting mTORC2 activity). […]
# (§3) The compounds were added to the kinase reaction mixture by Acoustic technology (Echo550; nanoliter range) and incubated for 20 min at room temperature before the addition of 100 µM 33P-ATP. The reaction was incubated for 2 h at room temperature, and kinase activity was detected by a P81 filter- […]
# (§4) AlphaLISA assays. […] The AlphaLISA protocol was performed in 384-well plates as instructed by Perkin Elmer, and the plates were read on an EnVision plate reader. […]
# [3] = test system: S473pAKT (mTORC2 activity) in MCF-7 cells; experiment: S473pAKT AlphaLISA assay in MCF-7 cells; assay type: cell-based, human; conditions: MCF-7, replete conditions, 120 min, dose-dependent
# Excerpt: as §1, with “cells.” for “cells. During the development of the assays, we noticed that ^T389pS6K1 was more responsive to our compound series than ^T37/46p4E-BP1, which may be due to differences in mTORC1 substrate classes in a cellular setting.”
# as §2, §3, §4
# Rheb = Rheb (Homo sapiens, UniProt Q15382); experiment: Affinity selection mass spectrometry (ASMS) Rheb binding; conditions: result in words
# Excerpt: We used both Rheb binding and functional activity to guide the SAR optimization. Due to its high sensitivity and ability to detect weak binding ligands, STD NMR was initially used to measure Rheb binding. In addition to the benzimidazole of 1, we also explored the related indole scaffold, which allowed a wider range of functionalization. […] Therefore, we also used affinity selection mass spectrometry (ASMS) as a semi-quantitative measure of Rheb binding.
# Sequence of Rheb (Q15382 whole entry): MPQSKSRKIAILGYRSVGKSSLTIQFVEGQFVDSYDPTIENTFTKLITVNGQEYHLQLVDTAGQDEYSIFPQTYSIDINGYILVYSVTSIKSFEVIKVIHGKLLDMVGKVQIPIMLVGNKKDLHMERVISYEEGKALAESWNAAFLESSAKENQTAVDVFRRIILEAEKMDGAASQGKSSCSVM
smiles,measurement,setting,value
"CN(C)C(=O)c1ccc(Cn2c(C(=O)O)cc3c(Br)cc(Sc4ccc(Cl)c(Cl)c4)cc32)cc1 [NR1, 4-bromo-6-(3,4-dichlorophenylthio)-1-(4-(dimethylcarbamoyl)benzyl)-1H-indole-2-carboxylic acid]",mTORC1 signaling in TRI102 cells,[1],inhibits mTORC1 signaling
same,S6K1 phosphorylation compared with rapamycin,pS6K1 in MCF-7 cells,does not inhibit S6K1 phosphorylation as well as 100 nM rapamycin
same,IC50,"[2]; Homo sapiens, MCF7, inhibition of S6K phosphorylation in cells, read-out: potency in cellular assays",2000 nM
same,phosphorylation of T389pS6K1,"[2]; MCF-7, replete conditions, 120 min, dose-dependent",inhibited the phosphorylation
same,phosphorylation of S473pAKT,[3],increased the phosphorylation
same,Rheb binding by ASMS,Rheb,significant affinity
